From patent publication US5798362A, “Quinazolinyl-amino derivatives having α-antagonist activity” (Recordati S.A. Chemical and Pharmaceutical Company, priority 1994, dated 1998)
pIC50: −log10 of the molar value. Structures can show the parent of a compound that is named as a salt. Where two headings read alike, the source gives them in different places.

Tests used:
[1] = molecular target: α1-receptors ([3H]prazosin); experiment: [3H]Prazosin binding (α1-receptors), rat cerebral cortices; settings: rat cerebral cortex, 0.35 nM [3H]prazosin, 25° C., 30 min; read-out: [3H] prazosine IC50
Procedure: Rat cerebral cortices were homogenized in 50 volumes of original wet weight of ice-cold 50 mM Tris-HCl buffer pH 7.4. The homogenates were centrifuged at 48,000 × g for 10 minutes, and the pellets were resuspended in the same volume of ice-cold buffer, centrifuged and resuspended two more times. […] The incubations were terminated by rapid filtration through Whatman GF/B, filters using a Brandel cell harvester and the filters were washed with 3×3 ml of ice-cold buffer. The radioactivity retained on the filters was determined by liquid scintillation counting. Data analysis The inhibition of specific binding of the radioligands by the tested drugs was analyzed to estimate the IC50 value by using the non-linear curve-fitting program Allfit [A. De Lean et al., Am. J. Physiol.

in vivo = settings: mouse, mice, mortality 7 days after administration
Procedure: 20-30 g b.w., were obtained from Charles River, Italy. Animals were housed with free access to food and water and maintained on forced light-dark cycle at 22°-24° C. until the day of experiments.
The acute toxicity of synthesized compounds was evaluated in female Albino Swiss mice after intraperitoneal and oral administration. Four logarithmic scaled doses of the compounds were dissolved or suspended in 0.5% Methocel and administered in a volume of 10 ml/kg to groups of 4 mice/dose. Mortality was recorded 7 days after the administration.

[2] = ip, intraperitoneal, read-out: DL50 i.p.

| SMILES | pIC50 [1] | LD50 at 168 h (in vivo; [2]) | LD50 at 168 h (in vivo; oral, read-out: DL50 p.o.) |
| --- | --- | --- | --- |
| COc1cc2nc(N3CCc4c(ccc5ccccc45)C3)nc(N)c2cc1OC [Example 30, 4-Amino-6,7-dimethoxy-2-(1,2,3,4-tetrahydrobenzo[f]isoquinolin-2-yl)-quinazoline . 0.25 ethanole] | 8.30 |  |  |
| COc1cc2nc(N3CCN(C(=O)COc4c(OC)cccc4OC)CC3)nc(N)c2cc1OC [Example 27, 4-Amino-6,7-dimethoxy-2-[4-(2,6-dimethoxyphenoxy)acetyl-1-piperazinyl]-quinazoline hydrochloride . 0.25 H2 O] | 8.22 |  |  |
| COc1cc2nc(N3CCN(C(=O)CCC(O)c4ccccc4)CC3)nc(N)c2cc1OC (stereo not drawn) [Example 16, 4-Amino-6,7-dimethoxy-2-[4-(4-phenyl-4-hydroxybutirryl)-1-piperazinyl]-quinazoline maleate (1:1)] | 7.77 | 253 mg/kg | > 3000 mg/kg |
| COc1cc2nc(N3CCN(C(=O)CCCNS(C)(=O)=O)CC3)nc(N)c2cc1OC [Example 9, 4-Amino-6,7-dimethoxy-2-{4-[(4-methylsulfonylamino)butirry]-1-piperazinyl}-quinazoline hydrochloride] | 7.07 | > 500 mg/kg |  |
| COc1cc2nc(N3CCN(C(=O)CC(N)=O)CC3)nc(N)c2cc1OC [Example 17, 4-Amino-6,7-dimethoxy-2-[4-(3-oxo-3-aminopropionyl)-1-piperazinyl]-quinazoline hydrochloride hydrate] | 6.98 |  |  |
| COc1cc2nc(N3CCN(C(=O)CC(c4ccccc4)c4ccccc4)CC3)nc(N)c2cc1OC [Example 4, 4-Amino-6,7-dimethoxy-2-[4-(3,3-diphenylpropionyl)-1-piperazinyl]-guinazoline hydrochloride] | 8.52 | 97 mg/kg | > 3000 mg/kg |
| CCOC(=O)CC(=O)N1CCN(c2nc(N)c3cc(OC)c(OC)cc3n2)CC1.Cl [Example 18, 4-Amino-6,7-dimethoxy-2-[4-(2-ethoxycarbonylacetyl)-1-piperazinyl]-quinazoline hydrochloride] | 7.27 | > 1000 mg/kg | > 3000 mg/kg |
| CCCCNC(=O)CC(=O)N1CCN(c2nc(N)c3cc(OC)c(OC)cc3n2)CC1.Cl [Example 19, 4-Amino-6,7-dimethoxy-2-[4-(3-n-butylamino-3-oxopropionyl)-1-piperazinyl]-quinazoline hydrochloride] | 7.02 | 459 mg/kg | > 2000 mg/kg |
| COc1cc2nc(N3CCN(C(=O)CNC(=O)CNC(=O)OCc4ccccc4)CC3)nc(N)c2cc1OC [Example 12, 4-Amino-6,7-dimethoxy-2-{4-[2-[2-(benzyloxycarbonylamino)-acetylamino]acetyl]-1-piperazinyl}-quinazoline hydrochloride hemihydrate] | 7.54 | 1130 mg/kg | > 2000 mg/kg |
| COc1cc2nc(N(C)Cc3ccccc3)nc(N)c2cc1OC [Example 28, 4-Amino-6,7-dimethoxy-2-(N-benzyl-N-methylamino)-guinazoline hydrochloride] | 7.15 | 89 mg/kg | 293 mg/kg |
| COc1cc2nc(N3CCN(C(=O)C(C)(C)Oc4ccccc4OC)CC3)nc(N)c2cc1OC.Cl [Example 22, 4-Amino-6,7-dimethoxy-2-{4-[2-(2-methoxyphenoxy)-2-methylpropionyl]-1-piperazinyl}-quinazoline hydrochloride] | 7.31 | 435 mg/kg | > 3000 mg/kg |
| COc1cc2nc(N3CCN(Cc4ccccc4)CC3)nc(N)c2cc1OC [Example 1, 4-Amino-6,7-dimethoxy-2-(4-benzyl-1-piperazinyl)-guinazoline bihydrochloride hemihydrate] | 7.49 | 76 mg/kg | 301 mg/kg |
| COc1cc2nc(N(C)CCC(c3ccccc3)c3ccccc3)nc(N)c2cc1OC [Example 29, 4-Amino-6,7-dimethoxy-2-(N-methyl-3,3-diphenylpropylamino)-guinazoline hydrochloride] | 7.07 | 163 mg/kg | > 2000 mg/kg |
| COc1cc2nc(N3CCN(C(=O)CNC(=O)OCc4ccccc4)CC3)nc(N)c2cc1OC.Cl [Example 11, 4-Amino-6,7-dimethoxy-2-{4-[2-(benzyloxycarbonylamino)-acetyl]-1-piperazinyl}-quinazoline hydrochloride] | 7.21 | > 1000 mg/kg | > 3000 mg/kg |
| COc1cc2nc(N3CCN(C(=O)CCN)CC3)nc(N)c2cc1OC [Example 7, 4-Amino-6,7-dimethoxy-2-[4-(3-aminopropionyl)-1-piperazinyl]-guinazoline dihydrobromide . 1.75 H2 O] | 7.32 | 187 mg/kg | > 3000 mg/kg |
| COc1cc2nc(N3CCN(C(=O)NCCN(C)C)CC3)nc(N)c2cc1OC.Cl.Cl.O.O.O.O [Example 10, 4-Amino-6,7-dimethoxy-2-{4-[(2-dimethylaminoethyl)amino-carbonyl]-1-piperazinyl}-quinazoline dihydrochloride tetrahydrate] | 7.26 | 23 mg/kg | 1350 mg/kg |
| COc1cc2nc(N3CCN(C(=O)CCNC(=O)OCc4ccccc4)CC3)nc(N)c2cc1OC [Example 5, 4-Amino-6,7-dimethoxy-2-{4-[(3-benzyloxycarbonylamino)propionyl]-1-piperazinyl}-quinazoline hydrochloride emihydrate] | 6.55 | 300 mg/kg | > 3000 mg/kg |
| COc1cc2nc(N3CCN(C(=O)CCCN)CC3)nc(N)c2cc1OC [Example 8, 4-Amino-6,7-dimethoxy-2-[4-(4-aminobutirryl)-1-piperazinyl]-guinazoline dihydrobromide . 0.25 H2 O] | 7.33 | 219 mg/kg | > 3000 mg/kg |
| COc1cc2nc(N3CCN(C(=O)C(C)Oc4c(OC)cccc4C(C)C)CC3)nc(N)c2cc1OC.Cl (stereo not drawn) [Example 26, 4-Amino-6,7-dimethoxy-2-{4-[2-(2-methoxy-6-isopropylphenoxy)propionyl]-1-piperazinyl}-quinazoline hydrochloride] | 6.91 | 115 mg/kg | 1960 mg/kg |
| COc1cc2nc(N3CCN(C(=O)C(C)(C)Oc4ccccc4)CC3)nc(N)c2cc1OC [Example 21, 4-Amino-6,7-dimethoxy-2-[4-(2-phenoxy-2-methylpropionyl)-1-piperazinyl]-quinazoline hydrochloride . 1.5 H2 O] | 7.00 | 206 mg/kg | > 1700 mg/kg |
| COc1cc2nc(N3CCN(C(=O)C(c4ccccc4)c4ccccc4)CC3)nc(N)c2cc1OC [Example 3, 4-Amino-6,7-dimethoxy-2-[4-(2,2-diphenylacetyl)-1-piperazinyl]-quinazoline hydrochloride . 0.75 H2 O] | 8.30 | 112 mg/kg | 868 mg/kg |
| COc1cc2nc(N3CCN(C(=O)CC(=O)Nc4ccccc4)CC3)nc(N)c2cc1OC [Example 20, 4-Amino-6,7-dimethoxy-2-[4-(phenylaminocarbonylacetyl)-1-piperazinyl]-quinazoline hydrochloride hemihydrate] | 7.17 |  |  |
| COc1cc2nc(N3CCN(C(=O)COc4ccccc4OC)CC3)nc(N)c2cc1OC.Cl [Example 23, 4-Amino-6,7-dimethoxy-2-[4-(2-methoxyphenoxyacetyl)-1-piperazinyl]-quinazoline hydrochloride] |  | 337 mg/kg | > 2000 mg/kg |
| COc1cc2nc(N3CCN(C(=O)CCC(=O)c4ccccc4)CC3)nc(N)c2cc1OC.Cl.O [Example 15, 4-Amino-6,7-dimethoxy-2-{4-[(3-benzoyl)propionyl]-1-piperazinyl}-quinazoline hydrochloride hydrate] | 7.82 | > 1000 mg/kg | > 3000 mg/kg |
| COc1cc2nc(N3CCN(C(=O)COc4cc(C)ccc4C(C)C)CC3)nc(N)c2cc1OC [Example 25, 4-Amino-6,7-dimethoxy-2-{4-[(2-isopropyl-5-methylphenoxy)acetyl]-1-piperazinyl}-quinazoline hydrochloride . 0.25 H2 O] | 6.80 | 346 mg/kg | > 3000 mg/kg |
| COc1cc2nc(N(C)CCCN3CCN(c4ccccc4OC)CC3)nc(N)c2cc1OC.Cl.Cl.O.O [Example 31, 4-Amino-6,7-dimethoxy-2-{N-methyl-N-{3-[4-(2-methoxyphenyl)-1-piperazinyl]propyl}amino}-quinazoline dihydrochloride dihydrate] | 7.92 | 70 mg/kg | > 2000 mg/kg |
| COc1cc2nc(N3CCN(C(c4ccccc4)c4ccccc4)CC3)nc(N)c2cc1OC [Example 2, 4-Amino-6,7-dimethoxy-2-(4-diphenylmethyl-1-piperazinyl)-guinazoline bihydrochloride emihydrate] | 7.40 |  |  |
| COc1cc2nc(N3CCC(c4ccccc4)(c4ccccc4)CC3)nc(N)c2cc1OC [Example 32, 4-Amino-6,7-dimethoxy-2-(4,4-diphenyl-1-piperidinyl)-guinazoline hydrochloride . 0.65 H2 O] | 6.59 | > 500 mg/kg | > 2000 mg/kg |
